Source: the NIST ThermoML archive (doi:10.1021/je9006629)

Key:
[1] = refractive index (Na D-line) (dimensionless); xn = mol fraction of the nth substance listed; settings: 293.15 K, 101 kPa, Liquid, Standard Abbe refractometry
[2] = Liquid; for Normal boiling temperature: Distillation

CCCCO [butan-1-ol] + CCCCCCC
[1]
Settings	refractive index
x1 = 0.1121	1.3889
x1 = 0.1897	1.3898
x1 = 0.2845	1.3909
x1 = 0.3707	1.3919
x1 = 0.4655	1.393
x1 = 0.5	1.3934
x1 = 0.5862	1.3944
x1 = 0.681	1.3955
x1 = 0.7586	1.3964
x1 = 0.8276	1.3972
x1 = 0.9224	1.3983
x1 = 1	1.3992

CCCCCO [pentan-1-ol] + CCCCCCC
[1]
Settings	refractive index
x1 = 0.0755	1.3893
x1 = 0.1601	1.3912
x1 = 0.2844	1.394
x1 = 0.3511	1.3955
x1 = 0.4622	1.398
x1 = 0.5821	1.4007
x1 = 0.6845	1.403
x1 = 0.7732	1.4051
x1 = 0.8978	1.4078
x1 = 1	1.4101

CCCCCCC [heptane] + CCCCCO
Settings	refractive index
[1], x2 = 0	1.3876

CCCCCCC [heptane]
[2]
Settings	vapor or sublimation pressure [kPa]
332.9 K	27.1
335.2 K	29.9
336.85 K	32.3
340.55 K	36.9
343.75 K	41.3
348.55 K	48.9
351.45 K	53.3
351.5 K	53.3
352.35 K	55.3
357.25 K	65.3
363.15 K	78.7
368.45 K	91.3
368.55 K	92.7
371.35 K	100.8
374 K	108.8

Settings	Normal boiling temperature [°C]
[2]	98.50

CCCCCO [pentan-1-ol]
[2]
Settings	vapor or sublimation pressure [kPa]
379.35 K	31.2
382.4 K	35.3
385.65 K	40
390.75 K	49.2
393.2 K	53.3
394.7 K	56.9
400.05 K	69.3
404.6 K	81.3
408.15 K	91.3
409 K	94.5
411.35 K	101.9
414.65 K	113.3

Settings	Normal boiling temperature [°C]
[2]	138.0

CCCCCCC [heptane] + CCCCO
Settings	refractive index
[1], x2 = 0	1.3876

CCCCO [butan-1-ol]
[2]
Settings	vapor or sublimation pressure [kPa]
356.35 K	25.3
359.45 K	29.3
362.95 K	33.5
368.6 K	42.8
373.45 K	52.5
373.85 K	53.3
377.3 K	61.2
381.9 K	72.8
386.05 K	84.9
387.75 K	91.3
391.95 K	105.3
395.8 K	120.1

Settings	Normal boiling temperature [°C]
[2]	117.80
